Results taken from patent US6432711B1, “Embryonic stem cells capable of differentiating into desired cell lines” (Diacrin, Inc., priority 1993, dated 2002).

What was measured:
Format in all cases: cell-based
[1] = tested on: D3 and E14 TG2a embryonic stem cell lines transfected with mouse MyoD cDNA; assay: Differentiation of MyoD-transfected embryonic stem cell lines into muscle after dimethylsulfoxide induction
Protocol: For transfection of embryonic stem cells with mouse MyoD cDNA, both the D3 (ATCC catalog no. CRL 1934) and E14 TG2a (ATCC catalog no. CRL 1821) embryonic stem cell lines were used. Embryonic stem cells were cultured as described in Robertson, 1987, except that the cells were maintained in media containing 5 ng/ml human recombinant leukemia inhibitory factor instead of on feeder layers.
Embryonic stem cells were co-transfected with pKJ1-Neo (Dinsmore, et al., Cell, Vol. 64, pgs. 817-826 (1991)), which carries the neomycin resistance gene for selection of stable transfectants, and with pEMCII (Davis, et al., Cell, Vol. 51, pgs. 987-1000 (1987)), which contains a portion of the mouse MyoD cDNA. pKJ1-Neo was linearized at the unique NsiI site and pEMCII was linearized at the unique ScaI site. In order to introduce the linearized plasmids into the embryonic stem cells, the embryonic stem cells were electroporated using a Gene Pulser (Bio Rad) in 0.4 cm gap distance electroporation cuvettes with the Gene Pulser set at 240 volts, 500μ Farads. […]
Stable transfectants were isolated, expanded, frozen, and then stored in liquid nitrogen. […] The percentage of cells that differentiated into skeletal muscle was greater than 90% as assessed by staining for muscle specific myosin, and by the ability of these cells to fuse and form myotubes that spontaneously twitch. […]

[2] = tested on: embryonic stem cells (ES-D3); assay: Differentiation of embryonic stem cell aggregates into contracting muscle cells by dimethylsulfoxide induction; details: 1% (by volume) dimethylsulfoxide in DMEM plus 10% horse serum, aggregates cultured 5 days in multi-well dishes
Source text: Undifferentiated embryonic stem cells (ES-D3, purchased from the American Type Culture Collection as ATCC catalog no. ATCC CRL 1934) are maintained in supplemented Dulbecco's modified Minimal Essential Medium as described in Example 1. The embryonic stem cells then are trypsinized and washed free of LIF and placed in 1% (by volume) dimethylsulfoxide in DMEM plus 10% horse serum. Two days after the addition of dimethylsulfoxide and plating of cells in Petri dishes to form aggregates, the aggregates are collected and resuspended in fresh medium plus 1% dimethylsulfoxide. The aggregates are then plated onto multi-well untreated culture grade dishes without trypsin treatment. One aggregate is plated per well. The aggregates are cultured for 5 days. Upon culturing of the cells in multi-well dishes, cell cultures in which greater than 80% of the aggregates contain contracting muscle cells are obtained. Such cells may be used to treat cardiomyopathies, myocardial infarction, congestive heart failure, or muscular dystrophy.

[3] = tested on: embryonic stem cells (ES-E14TG2a); assay: Differentiation of embryonic stem cells into neuronal cells by retinoic acid induction; details: 0.5 μM retinoic acid, aggregates induced four days in DMEM plus 10% FBS, then cultured 5 days in stem cell medium on poly-D-lysine
Source text: Undifferentiated embryonic stem cells (ES-E14TG2a, purchased from the American Type Culture Collection, catalog no. ATCC CRL 1821) are maintained in Dulbecco's modified Minimal Essential Medium (DMEM) supplemented with glutamine, β-mercaptoethanol, 10% (by volume) horse serum, and human recombinant Leukemia Inhibitory Factor (LIF). The LIF replaces the need for maintaining embryonic stem cells on feeder layers of cells, and is essential for maintaining embryonic stem cells in an undifferentiated state.
In order to promote the differentiation of the embryonic stem cells into neuronal cells, the embryonic stem cells are trypsinized and washed free of LIF, and placed in DMEM supplemented with 10% (by volume) fetal bovine serum (FBS). After resuspension in DMEM and 10% FBS, 1×10^6 cells are plated in 5 ml DMEM plus 10% FBS plus 0.5 μM retinoic acid in a 60 mm Fisher brand bacteriological grade Petri dish. In such Petri dishes, embryonic stem cells cannot adhere to the dish, and instead adhere to each other, thus forming small aggregates of cells. Aggregation of cells aids in enabling proper cell differentiation. After two days, aggregates of cells are collected and resuspended in fresh DMEM plus 10% FBS plus 0.5 μM retinoic acid, and replated in Petri dishes for an additional two days. […]

| Compound | cell types obtained after induction ([1]; MyoD transformants expressing very low amounts of MyoD, indistinguishable from non-transfected embryonic stem cells) | percentage of cells that differentiated into skeletal muscle ([1]; cell lines expressing high amounts of MyoD, staining for muscle specific myosin, fusion into twitching myotubes) | percentage of aggregates that contain contracting muscle cells [2] | percentage of cells in the culture that are neuronal cells [3] |
| --- | --- | --- | --- | --- |
| C[S+](C)[O-] [dimethylsulfoxide] | mix of cardiac, smooth, and skeletal muscle | greater than 90% | greater than 80% | – |
| CC1=C(/C=C/C(C)=C/C=C/C(C)=C/C(=O)O)C(C)(C)CCC1 [retinoic acid] | – | – | – | greater than 90% |
